Measurements published in ChEMBL document CHEMBL4765439, “Identification of the subtype-selective Sirt5 inhibitor balsalazide through systematic SAR analysis and rationalization via theoretical investigations” (Eur J Med Chem, 2020).
pIC50: −log10 of the molar value. Active and inactive are the calls of the source. The calls are words filed in the database; no cut-off is given here.

Experiments:
[1] = target: T1, NAD-dependent protein deacylase sirtuin-5, mitochondrial (Homo sapiens, UniProt Q9NXA8); assay: Inhibition of recombinant human SIRT5 at 50 uM using flour de lys succinyl as substrate in presence of NAD+ by fluorometric assay relative to control
Target sequence in this assay (Q9NXA8 37-310 limits assumed): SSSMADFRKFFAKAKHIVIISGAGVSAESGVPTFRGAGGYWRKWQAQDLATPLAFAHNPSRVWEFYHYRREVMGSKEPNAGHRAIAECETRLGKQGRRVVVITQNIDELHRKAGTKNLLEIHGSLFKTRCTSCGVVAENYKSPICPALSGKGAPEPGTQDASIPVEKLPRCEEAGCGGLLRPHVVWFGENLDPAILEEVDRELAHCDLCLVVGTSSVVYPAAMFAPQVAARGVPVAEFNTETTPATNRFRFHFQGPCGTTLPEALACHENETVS

[2] = target: T1, NAD-dependent protein deacylase sirtuin-5, mitochondrial; assay: Inhibition of SIRT5 (unknown origin)
Target sequence in this assay (Q9NXA8 whole entry): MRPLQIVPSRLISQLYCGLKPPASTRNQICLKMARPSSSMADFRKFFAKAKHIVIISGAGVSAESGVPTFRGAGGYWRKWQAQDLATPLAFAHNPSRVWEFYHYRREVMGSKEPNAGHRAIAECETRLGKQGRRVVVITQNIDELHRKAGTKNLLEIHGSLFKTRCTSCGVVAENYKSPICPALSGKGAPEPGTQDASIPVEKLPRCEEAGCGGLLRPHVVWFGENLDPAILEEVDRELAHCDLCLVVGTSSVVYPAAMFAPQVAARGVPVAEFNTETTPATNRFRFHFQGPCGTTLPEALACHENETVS

[3] = target: T2, NAD-dependent protein deacetylase sirtuin-1 (Homo sapiens) (UniProt Q96EB6); assay: (§1) Inhibition of recombinant human SIRT1 (133 to 747 residues) expressed in Escherichia coli BL21(DE3) at 50 uM using ZMAL as substrate incubated for 4 hrs in presence of NAD+ followed by incubation with trypsin for 20 mins by trypsin-coupled assay based homogenous fluorescence analysis relative to control; settings: time 260.0 min
T2 sequence (whole entry): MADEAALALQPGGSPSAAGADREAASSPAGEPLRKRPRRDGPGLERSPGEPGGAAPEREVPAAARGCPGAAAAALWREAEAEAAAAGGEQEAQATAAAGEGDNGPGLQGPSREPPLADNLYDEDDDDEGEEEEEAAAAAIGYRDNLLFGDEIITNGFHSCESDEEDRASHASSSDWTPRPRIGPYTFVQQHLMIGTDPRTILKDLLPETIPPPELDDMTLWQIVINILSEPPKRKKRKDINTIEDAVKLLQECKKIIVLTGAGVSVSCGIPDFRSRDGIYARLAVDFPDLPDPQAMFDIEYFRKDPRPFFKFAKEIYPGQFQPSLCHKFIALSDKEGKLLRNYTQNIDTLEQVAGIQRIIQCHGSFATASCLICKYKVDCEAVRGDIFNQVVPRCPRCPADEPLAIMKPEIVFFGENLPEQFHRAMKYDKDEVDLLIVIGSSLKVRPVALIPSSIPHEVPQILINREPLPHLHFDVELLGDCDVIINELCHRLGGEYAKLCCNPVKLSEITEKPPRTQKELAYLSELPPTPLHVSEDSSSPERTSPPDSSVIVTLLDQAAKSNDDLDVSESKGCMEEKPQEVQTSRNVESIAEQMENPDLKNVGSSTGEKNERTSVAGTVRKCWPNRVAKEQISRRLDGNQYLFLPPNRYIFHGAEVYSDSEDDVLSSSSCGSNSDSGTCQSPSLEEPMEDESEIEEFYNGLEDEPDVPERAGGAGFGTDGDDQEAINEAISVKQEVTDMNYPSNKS

[4] = target: T3, NAD-dependent protein deacetylase sirtuin-2 (Homo sapiens) (UniProt Q8IXJ6); assay: as §1, with “SIRT2 (25” for “SIRT1 (133”, “389” for “747”; settings: time 260.0 min
T3 sequence (whole entry): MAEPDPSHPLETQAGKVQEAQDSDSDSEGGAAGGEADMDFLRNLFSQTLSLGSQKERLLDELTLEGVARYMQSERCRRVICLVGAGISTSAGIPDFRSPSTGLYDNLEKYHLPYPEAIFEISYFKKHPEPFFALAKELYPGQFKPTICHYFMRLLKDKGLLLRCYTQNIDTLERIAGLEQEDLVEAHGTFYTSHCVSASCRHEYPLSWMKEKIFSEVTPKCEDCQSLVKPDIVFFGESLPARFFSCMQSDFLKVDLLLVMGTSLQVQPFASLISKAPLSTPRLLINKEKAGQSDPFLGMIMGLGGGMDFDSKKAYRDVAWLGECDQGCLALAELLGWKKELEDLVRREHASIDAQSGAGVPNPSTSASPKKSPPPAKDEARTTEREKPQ

[5] = target: T4, NAD-dependent protein deacetylase sirtuin-3, mitochondrial (Homo sapiens) (UniProt Q9NTG7); assay: as §1, with “SIRT3 (101” for “SIRT1 (133”, “399” for “747”, “100” for “50”; settings: time 260.0 min
T4 sequence (whole entry): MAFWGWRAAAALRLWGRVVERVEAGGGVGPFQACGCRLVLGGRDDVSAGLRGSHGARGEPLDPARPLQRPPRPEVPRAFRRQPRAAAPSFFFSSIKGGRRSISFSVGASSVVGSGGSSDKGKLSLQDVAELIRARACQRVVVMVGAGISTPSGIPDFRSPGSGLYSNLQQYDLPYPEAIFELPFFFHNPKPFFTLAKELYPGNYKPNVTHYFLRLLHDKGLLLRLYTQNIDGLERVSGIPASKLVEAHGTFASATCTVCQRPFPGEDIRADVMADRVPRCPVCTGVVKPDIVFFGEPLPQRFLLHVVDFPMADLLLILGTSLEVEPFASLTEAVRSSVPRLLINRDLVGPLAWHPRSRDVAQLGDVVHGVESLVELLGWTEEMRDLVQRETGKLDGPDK

[6] = target: T3, NAD-dependent protein deacetylase sirtuin-2 (Homo sapiens); assay: as §1, with “SIRT2 (25” for “SIRT1 (133”, “389” for “747”, “100” for “50”; settings: time 260.0 min
[7] = target: T2, NAD-dependent protein deacetylase sirtuin-1 (Homo sapiens); assay: as §1, with “100” for “50”; settings: time 260.0 min
[8] = target: T1, NAD-dependent protein deacylase sirtuin-5, mitochondrial; assay: Competitive inhibition of recombinant human SIRT5 assessed as substrate conversion at 50 uM using ZKsA as substrate in presence of increasing concentration of NAD+ by trypsin-coupled assay
Target sequence in this assay (Q9NXA8 37-310 limits assumed): as the sequence (Q9NXA8 37-310 limits assumed) above

[9] = target: T1, NAD-dependent protein deacylase sirtuin-5, mitochondrial; assay: Competitive inhibition of recombinant human SIRT5 assessed as substrate conversion at 50 uM using increasing concentration of ZKsA as substrate in presence of NAD+ by trypsin-coupled assay
Target sequence in this assay (Q9NXA8 37-310 limits assumed): as above

[10] = target: T1, NAD-dependent protein deacylase sirtuin-5, mitochondrial; assay: Inhibition of recombinant human SIRT5 using flour de lys succinyl as substrate in presence of NAD+ by fluorometric assay
Target sequence in this assay (Q9NXA8 whole entry): as the sequence (Q9NXA8 whole entry) above

SMILES: O=C(O)CNC(=S)Nc1ccc(/N=N/c2ccc(O)c(C(=O)O)c2)cc1
- inhibition [1]: 24%

SMILES: CC1=C2C(=COC(C)C2C)C(O)=C(C(=O)O)C1=O (configuration not stated)
- pIC50 [2]: 4.05

SMILES: C[C@]12CC[C@@H]3c4ccc(O)cc4C[C@@H](CCCCCCCCC[S+]([O-])CCCC(F)(F)C(F)(F)F)[C@H]3[C@@H]1CC[C@@H]2O (some centres not stated) [FULVESTRANT]
- pIC50 [2]: 5.59

SMILES: O=C(O)CCC(=O)Nc1ccc(/N=N/c2ccc(O)c(C(=O)O)c2)cc1
- inhibition [1]: 26%

SMILES: Cc1ccc(C(=O)Nc2ccc(S(=O)(=O)O)c3cc(S(=O)(=O)O)cc(S(=O)(=O)O)c23)cc1NC(=O)c1cccc(NC(=O)Nc2cccc(C(=O)Nc3cc(C(=O)Nc4ccc(S(=O)(=O)O)c5cc(S(=O)(=O)O)cc(S(=O)(=O)O)c45)ccc3C)c2)c1
- inhibition [1]: 53%
- inhibition [3]: 95%

SMILES: O=C(O)CCNC(=O)c1ccc(/N=N/c2cccc(C(=O)O)c2)cc1
- inhibition [1]: 63%
- inhibition [4]: 21%
- inhibition [5]: inactive
- inhibition [6]: < 25%
- inhibition [7]: inactive
- inhibition [3]: < 10%

SMILES: O=C(O)CCCCc1ccc(/N=N/c2ccc(O)c(C(=O)O)c2)cc1
- inhibition [1]: 32%

SMILES: CCCNC(=O)c1ccc(/N=N/c2ccc(O)c(C(=O)O)c2)cc1
- inhibition [1]: 31%

SMILES: O=C(O)CCCC(O)c1ccc(/N=N/c2ccc(O)c(C(=O)O)c2)cc1 (configuration not stated)
- inhibition [1]: 39%

SMILES: Cc1cc(C(C#N)c2ccc(Cl)cc2)c(Cl)cc1NC(=O)c1cc(I)cc(I)c1O (configuration not stated) [CLOSANTEL]
- pIC50 [2]: 5.57

SMILES: O=C(O)CCOCc1ccc(/N=N/c2ccc(O)c(C(=O)O)c2)cc1
- inhibition [1]: 33%

SMILES: O=C(O)CCNC(=O)c1ccc(/N=N/c2ccc(O)c(C(=O)O)c2)cc1 [BALSALAZIDE]
- inhibition [8]: inactive
- pIC50 [2]: 5.41
- inhibition [1]: 83%
- inhibition [9]: inactive
- inhibition [4]: 11%
- pIC50 [10]: 5.28
- inhibition [3]: < 10%

SMILES: O=C(O)CCNC(=O)c1ccc(/N=N/c2ccc(O)cc2)cc1
- inhibition [8]: inactive
- inhibition [1]: 73%
- inhibition [9]: inactive
- inhibition [4]: 26%
- inhibition [3]: < 10%

SMILES: O=C(O)c1ccc(/N=N/c2ccc(O)c(C(=O)O)c2)cc1
- inhibition [1]: 27%

SMILES: O=C(O)CCNCc1ccc(/N=N/c2ccc(O)c(C(=O)O)c2)cc1
- inhibition [8]: inactive
- inhibition [1]: 27%
- inhibition [9]: inactive
- inhibition [4]: 19%
- inhibition [3]: < 10%

SMILES: CC(C)(Sc1cc(C(C)(C)C)c(O)c(C(C)(C)C)c1)Sc1cc(C(C)(C)C)c(O)c(C(C)(C)C)c1 [PROBUCOL]
- pIC50 [2]: 5.80

SMILES: C=C1c2cccc(O)c2C(=O)C2=C(O)[C@]3(O)C(=O)C(C(N)=O)=C(O)[C@@H](N(C)C)[C@@H]3[C@@H](O)[C@H]12 [METHACYCLINE]
- pIC50 [2]: 5.44

SMILES: NC(=O)c1cccnc1
- inhibition [4]: 65%
- inhibition [3]: 21%

SMILES: O=C(O)CCCC(=O)c1ccc(/N=N/c2ccc(O)c(C(=O)O)c2)cc1
- inhibition [1]: 54%

SMILES: NC(=O)c1ccc(/N=N/c2ccc(O)c(C(=O)O)c2)cc1
- inhibition [1]: 32%

SMILES: O=C(O)CCNC(=O)c1ccc(/N=N/c2ccccc2)cc1
- inhibition [1]: 62%
- inhibition [4]: 16%
- inhibition [5]: inactive
- inhibition [6]: < 25%
- inhibition [7]: inactive
- inhibition [3]: < 10%
